In patent US6365201B1, “Phytodrug for management of peptic ulcer and methods of preparing and using same” (National Institute for Pharmaceutical Research and …, priority 1997, dated 2002):

Tested on: small intestinal transit
Assay: Small intestinal transit in mice, charcoal meal method
Format: in vivo
Details: reference, dose not given
Procedure: Drugs that delay the small intestinal transit time have beneficial effects on ulcer patients. The effect of the Indigofera […] extract on small intestinal transit in mice was tested using the charcoal meal method.

SMILES: NC[C@H](O)c1ccc(O)c(O)c1 [Noradrenaline]
- % distance traveled: 64.6 ± 9.0%
- % inhibition: 35.4%
